Columns and labels:
[1] = Cytotoxicity against human MT2 cells assessed as decrease in cell viability; type: cell-based
[2] = test system: Human immunodeficiency virus 1; assay: Antiviral activity against ENV pseudotyped HIV1 […] infected in human HeLa67 cells expressing CD4/CCR5[…] after 72 hrs by luciferase reporter gene assay; type: functional, organism-based; conditions: Human immunodeficiency virus 1, HeLa67, 72 h

`CC1CN(C(=O)c2ccccc2)CCN1C(=O)C(=O)c1nsc2ccccc12` (stereo not given) gave a CC50 [1] of 75000 nM and an EC50 [2] of 734 nM.

In the case of `O=C(C(=O)N1CCN(C(=O)c2ccccc2)CC1)c1ccc2ccccc2c1`, the CC50 [1] is reported as 94000 nM and the EC50 [2] is reported as 135 nM.

`CC1CN(C(=O)c2ccccc2)CCN1C(=O)C(=O)c1ccc2c(O)cccc2n1` (stereo not given) showed a CC50 [1] of 195000 nM and an EC50 [2] of 0.4 nM.

For `C[C@@H]1CN(C(=O)c2ccccc2)CCN1C(=O)C(=O)c1ccc2cc(C(=O)O)ccc2c1`, the CC50 [1] was over 300000 nM and the EC50 [2] was 27 nM.

With `O=C(C(=O)N1CCN(C(=O)c2ccccc2)CC1)c1ccc2[nH]ccc2c1` the CC50 [1] was over 250000 nM and the EC50 [2] was 255 nM.

Work on `C[C@@H]1CN(C(=O)c2ccccc2)CCN1C(=O)C(=O)c1cc2cccn2cn1` yielded a CC50 [1] of over 300000 nM and an EC50 [2] of 407 nM.

For `COc1cccc2nc(C(=O)C(=O)N3CCN(C(=O)c4ccccc4)CC3C)ccc12` (stereo not given), the CC50 [1] was 200000 nM and the EC50 [2] was 2.9 nM.

`COc1ccc2nc(C(=O)C(=O)N3CCN(C(=O)c4ccccc4)C[C@H]3C)sc2c1` showed a CC50 [1] of 151000 nM and an EC50 [2] of 2.6 nM.

In the case of `O=C(C(=O)N1CCN(C(=O)c2ccccc2)CC1)c1cc2ccccc2cn1`, the CC50 [1] is reported as over 300000 nM and the EC50 [2] is reported as 182 nM.

For `C[C@@H]1CN(C(=O)c2ccccc2)CCN1C(=O)C(=O)c1cnc2ccccc2n1`, the CC50 [1] was over 300000 nM and the EC50 [2] was 4.6 nM.

Work on `C[C@@H]1CN(C(=O)c2ccccc2)CCN1C(=O)C(=O)c1ccc2scnc2c1` yielded a CC50 [1] of over 300000 nM and an EC50 [2] of 86 nM.

In the case of `COc1ccc2cc(C(=O)C(=O)N3CCN(C(=O)c4ccccc4)CC3C)[nH]c2c1` (stereo not given), the CC50 [1] is reported as 27000 nM and the EC50 [2] is reported as 4.8 nM.

In the case of `C[C@H]1CN(C(=O)c2ccccc2)CCN1C(=O)C(=O)c1cnc2ccccc2n1`, the CC50 [1] is reported as 114000 nM and the EC50 [2] is reported as 26 nM.

With `O=C(C(=O)N1CCN(C(=O)c2ccccc2)CC1)c1nc2ccccc2[nH]1` the CC50 [1] was over 300000 nM and the EC50 [2] was 2460 nM.

In the case of `C[C@H]1CN(C(=O)c2ccccc2)CCN1C(=O)C(=O)c1ccc2ccccc2n1`, the CC50 [1] is reported as 166000 nM and the EC50 [2] is reported as 4.4 nM.

In the case of `C[C@@H]1CN(C(=O)c2ccccc2)CCN1C(=O)C(=O)c1ccc2cc(C(=N)NO)ccc2c1`, the CC50 [1] is reported as 234000 nM and the EC50 [2] is reported as 0.16 nM.

`O=C(C(=O)N1CCN(C(=O)c2ccccc2)CC1)c1ccc2cccnc2n1` showed a CC50 [1] of over 300000 nM and an EC50 [2] of over 5000 nM.

Compound `O=C(C(=O)N1CCN(C(=O)c2ccccc2)CC1)c1cc2ccccc2s1` has a CC50 [1] of 9000 nM and an EC50 [2] of 2840 nM.

For `CC1CN(C(=O)c2ccccc2)CCN1C(=O)C(=O)c1cnc2ncccn12` (stereo not given), the CC50 [1] was over 300000 nM and the EC50 [2] was over 5000 nM.

In the case of `C[C@@H]1CN(C(=O)c2ccccc2)CCN1C(=O)C(=O)c1n[nH]c2ccccc12`, the CC50 [1] is reported as over 300000 nM and the EC50 [2] is reported as 655 nM.

In the case of `COc1ccc2nc(C(=O)C(=O)N3CCN(C(=O)c4ccccc4)CC3C)ccc2c1` (stereo not given), the CC50 [1] is reported as 184000 nM and the EC50 [2] is reported as 0.2 nM.

Work on `C[C@@H]1CN(C(=O)c2ccccc2)CCN1C(=O)C(=O)c1nc2ccccc2n1C` yielded a CC50 [1] of over 300000 nM and an EC50 [2] of 12 nM.

Work on `CC1CN(C(=O)c2ccccc2)CCN1C(=O)C(=O)c1ccc2cc(O)ccc2n1` (stereo not given) yielded a CC50 [1] of 210000 nM and an EC50 [2] of 0.2 nM.

In the case of `C[C@@H]1CN(C(=O)c2ccccc2)CCN1C(=O)C(=O)c1cc2sccc2[nH]1`, the CC50 [1] is reported as 106000 nM and the EC50 [2] is reported as 2320 nM.

In the case of `C[C@@H]1CN(C(=O)c2ccccc2)CCN1C(=O)C(=O)c1ccc2cc(C(N)=O)ccc2c1`, the CC50 [1] is reported as 189000 nM and the EC50 [2] is reported as 11.9 nM.

With `C[C@@H]1CN(C(=O)c2ccccc2)CCN1C(=O)C(=O)c1ccc2cc(-c3nccs3)ccc2c1` the EC50 [2] was 0.03 nM.

Compound `COc1ccc2[nH]c(C(=O)C(=O)N3CCN(C(=O)c4ccccc4)CC3C)cc2c1` (stereo not given) has a CC50 [1] of 33000 nM and an EC50 [2] of over 5000 nM.

Compound `C[C@@H]1CN(C(=O)c2ccccc2)CCN1C(=O)C(=O)c1ccc2ccccc2c1` has a CC50 [1] of 171000 nM and an EC50 [2] of 2.4 nM.

`O=C(C(=O)N1CCN(C(=O)c2ccccc2)CC1)c1cc2ccccc2[nH]1` gave a CC50 [1] of over 300000 nM and an EC50 [2] of 561 nM.

In the case of `O=C(C(=O)N1CCN(C(=O)c2ccccc2)CC1)c1ccc2cnccc2n1`, the CC50 [1] is reported as over 300000 nM and the EC50 [2] is reported as 137 nM.

For `O=C(C(=O)N1CCN(C(=O)c2ccccc2)CC1)c1cnn2ccccc12`, the CC50 [1] was over 300000 nM and the EC50 [2] was over 5000 nM.

With `CC1CN(C(=O)c2ccccc2)CCN1C(=O)C(=O)c1cccc2cc[nH]c12` (stereo not given) the CC50 [1] was 212000 nM and the EC50 [2] was 1010 nM.

In the case of `CC1CN(C(=O)c2ccccc2)CCN1C(=O)C(=O)c1ccc2cc(F)ccc2n1` (stereo not given), the CC50 [1] is reported as 258000 nM and the EC50 [2] is reported as 5.9 nM.

With `C[C@@H]1CN(C(=O)c2ccccc2)CCN1C(=O)C(=O)c1c[nH]c2ccccc12` the CC50 [1] was 200000 nM and the EC50 [2] was 4 nM.

Compound `CC1CN(C(=O)c2ccccc2)CCN1C(=O)C(=O)c1ccc2ccccc2n1` (stereo not given) has a CC50 [1] of 266000 nM and an EC50 [2] of 1.2 nM.

Compound `O=C(C(=O)N1CCN(C(=O)c2ccccc2)CC1)c1ccc2ccccc2n1` has a CC50 [1] of over 300000 nM and an EC50 [2] of 13 nM.

For `O=C(C(=O)N1CCN(C(=O)c2ccccc2)CC1)c1ccc2cccnc2c1`, the CC50 [1] was over 300000 nM and the EC50 [2] was 2860 nM.

For `O=C(C(=O)N1CCN(C(=O)c2ccccc2)CC1)c1nc2ccccc2o1`, the CC50 [1] was over 300000 nM and the EC50 [2] was over 5000 nM.

`C[C@@H]1CN(C(=O)c2ccccc2)CCN1C(=O)C(=O)c1ccc2cc(C#N)ccc2c1` showed a CC50 [1] of 102000 nM and an EC50 [2] of 30 nM.

Compound `C[C@@H]1CN(C(=O)c2ccccc2)CCN1C(=O)C(=O)c1cc2ccccc2[nH]1` has an EC50 [2] of 219 nM.

Work on `O=C(C(=O)N1CCN(C(=O)c2ccccc2)CC1)c1cn2c(n1)sc1ccccc12` yielded a CC50 [1] of over 300000 nM and an EC50 [2] of 52 nM.

`C[C@@H]1CN(C(=O)c2ccccc2)CCN1C(=O)C(=O)c1ccc2ccccc2n1` showed a CC50 [1] of 198000 nM and an EC50 [2] of 0.7 nM.

For `CC1CN(C(=O)c2ccccc2)CCN1C(=O)C(=O)c1cnc2ccccn12` (stereo not given), the CC50 [1] was over 300000 nM and the EC50 [2] was over 5000 nM.

With `C[C@@H]1CN(C(=O)c2ccccc2)CCN1C(=O)C(=O)c1cc2sccc2s1` the CC50 [1] was over 300000 nM and the EC50 [2] was 358 nM.

With `O=C(C(=O)N1CCN(C(=O)c2ccccc2)CC1)c1csc2ccccc12` the CC50 [1] was 141000 nM and the EC50 [2] was 764 nM.

Compound `COc1cc(C(=O)C(=O)N2CCN(C(=O)c3ccccc3)C[C@H]2C)nc2ccccc12` has a CC50 [1] of 96000 nM and an EC50 [2] of 56 nM.

Work on `C[C@@H]1CN(C(=O)c2ccccc2)CCN1C(=O)C(=O)c1nc2ccccc2s1` yielded a CC50 [1] of over 230000 nM and an EC50 [2] of 34 nM.

`COc1cc(OC)c2cc(C(=O)C(=O)N3CCN(C(=O)c4ccccc4)CC3C)[nH]c2c1` (stereo not given) showed a CC50 [1] of 68000 nM and an EC50 [2] of over 5000 nM.

For `C[C@@H]1CN(C(=O)c2ccccc2)CCN1C(=O)C(=O)c1nc2ccccc2[nH]1`, the CC50 [1] was over 300000 nM and the EC50 [2] was 798 nM.

`O=C(C(=O)N1CCN(C(=O)c2ccccc2)CC1)c1ccc2nccnc2c1` gave a CC50 [1] of over 300000 nM and an EC50 [2] of 3610 nM.

In the case of `O=C(C(=O)N1CCN(C(=O)c2ccccc2)CC1)c1cnc2ccccc2n1`, the CC50 [1] is reported as over 300000 nM and the EC50 [2] is reported as 108 nM.

Compound `C[C@@H]1CN(C(=O)c2ccccc2)CCN1C(=O)C(=O)c1c[nH]c2c1ccc1cccnc12` has a CC50 [1] of 45000 nM and an EC50 [2] of 17 nM.

Compound `COc1ccc2cc(C(=O)C(=O)N3CCN(C(=O)c4ccccc4)C[C@H]3C)ccc2c1` has a CC50 [1] of 41000 nM and an EC50 [2] of 0.1 nM.

Work on `C[C@@H]1CN(C(=O)c2ccccc2)CCN1C(=O)C(=O)c1cn2c(n1)sc1ccccc12` yielded a CC50 [1] of over 300000 nM and an EC50 [2] of 11 nM.

In the case of `CC1CN(C(=O)c2ccccc2)CCN1C(=O)C(=O)c1ccc2cc(Br)ccc2n1` (stereo not given), the CC50 [1] is reported as 134000 nM and the EC50 [2] is reported as 1.7 nM.

`C[C@@H]1CN(C(=O)c2ccccc2)CCN1C(=O)C(=O)c1ccc2[nH]nnc2c1` gave a CC50 [1] of over 300000 nM and an EC50 [2] of 3060 nM.

`O=C(C(=O)N1CCN(C(=O)c2ccccc2)CC1)c1c[nH]c2ccccc12` showed a CC50 [1] of 339000 nM.

`O=C(C(=O)N1CCN(C(=O)c2ccccc2)CC1)c1cccc2ccccc12` gave a CC50 [1] of over 300000 nM and an EC50 [2] of 355 nM.

`C[C@@H]1CN(C(=O)c2ccccc2)CCN1C(=O)C(=O)c1ccc2cc(Br)ccc2c1` gave a CC50 [1] of 301000 nM and an EC50 [2] of 1.3 nM.
